According to patent US20090018194A1, “Use of antimicrobial agents derived from alliaceous plants for the prevention and control of crop diseases, post-harvest rot and as environmental disinifectant products” (DMC Research Center, S.L., priority 2007, published 2009):

Columns and labels:
[1] = test system: Bacillus subtilis ATCC 6633; assay: agar diffusion test with impregnated cellulose discs; assay type: cell-based; conditions: incl. 6 mm disc
[2] = test system: mixture of fungi (P. expansum, P. italicum, P. digitatum and A. alternata); assay: disinfection of rooms by means of fogging
[3] = test system: Bacillus cereus ATCC 10876; assay: agar diffusion test with impregnated cellulose discs; assay type: cell-based; conditions: incl. 6 mm disc
[4] = test system: Ralstonia solanacearum Strain GM1000; assay type: cell-based; conditions: in vitro tests
[5] = test system: Enteroccus faecalis ATCC 29212; assay: agar diffusion test with impregnated cellulose discs; assay type: cell-based; conditions: incl. 6 mm disc
Rhizopus stolonifer = assay: disinfection of containers stored inside the rooms by fogging
[6] = test system: Fungi mixture (P. expansum, P. italicum, P. digitatum and A. Alternata); assay: disinfection of artificially contaminated containers by drencher; conditions: drencher 30 seconds
Method: A test of the disinfection of containers (fruit boxes and crates) was conducted in which a level of artificial contamination was created by means of controlled inoculation, with the objective of determining optimum doses of application to achieve a satisfactory disinfection. First the containers (made of wood and plastic) were disinfected with sodium hypochlorite, and they were then artificially contaminated via controlled inoculations with different fungi characteristic of the fruit and vegetable processing sector. For this purpose, isolated wild strains were used which, after sporulation, were collected to create a suspension of mixed spores of various fungi (Penicillium expansum, Penicillium italicum, Penicillium digitarum and Alternario alternata) and, separately in simultaneous tests (as a result of its higher rate of growth and its invasive character), a suspension of Rhizopus stolonifer. […] After this fogging, the containers were allowed to dry. The containers were then sampled to determine the level of initial contamination achieved (by means of contact plates containing Rose Bengal agar). The containers were then treated in a pilot line […]. The hold time of the containers under the showers was 30 seconds, and the test doses were 750 ppm and 1050 ppm for PTS and 2000 ppm and 5000 ppm in the case of PTSO. After exiting the showers, the treated containers were allowed to dry, and were again sampled using contact plates with Rose Bengal agar to determine the final level of contamination. The sampling unit was 3 containers and 3 plates per repetition.

[7] = test system: Listeria innocua CECT 4030; assay: agar diffusion test with impregnated cellulose discs; assay type: cell-based; conditions: incl. 6 mm disc
Penicillium expansum = assay: reduction of spores in suspension in absence or presence of organic matter; assay type: cell-based; conditions: PTSO 2000 ppm 1 min.
Excerpt: (§1) In addition, under the real conditions of a disinfecting bath for boxes, crates and containers, as well as for the disinfection of rooms and work surfaces, organic material (soil residue, rotten fruit, leaves etc.) is generally present, which can reduce the action of the disinfectant agent. Therefore, the effectiveness of PTS and PTSO has also been assessed in the presence of organic matter on two pathogens that cause post-harvest rot of stone fruit (Penicillium expansum) and citrus fruit (Penicillium digitatum).

Penicillium digitatum = assay: as above; assay type: cell-based; conditions: PTSO 2000 ppm 1 min.
Excerpt: as §1

Fusarium spp. = assay: field tests on affected asparagus, Fusarium spp. in roots; assay type: in vivo; conditions: 60 days after application, compared to untreated control
Method: The treatment doses used were 250, 500 and 1000 ppm of both active principles (PT and PTSO), and the initial incidence of the pathogen was compared with its presence 60 days after its application.
To analyze the growth of the crops infected by Fusarium spp. after the treatments, root and soil samples were taken and tests were performed in the laboratory to investigate the incidence of the pathogen in the roots and soil. The cultivation media used were potato dextrose agar and rose bengal agar (to prevent the invasive character of the Mucoralean fungi).
The soil analysis was conducted by sequential dilutions of the soils in physiological serum with a subsequent sowing in the above mentioned media. The analysis of the roots was performed after dissection of the infected tissues, which were deposited in triplicate on filter paper located above both media, and their evolution over time was studied.
The data are expressed as a percentage of elimination and reduction as a function of the treatment dose compared to the untreated control samples.

[8] = test system: Escherichia coli ATCC 25922; assay: agar diffusion test with impregnated cellulose discs; assay type: cell-based; conditions: incl. 6 mm disc
fungal population = assay: disinfection by drencher of naturally contaminated containers of a citrus fruit processing plant; conditions: PTSO 2000 ppm
[9] = test system: Penicillium solitum Wild strain; assay: agar diffusion test with impregnated cellulose discs; assay type: cell-based; conditions: incl. 6 mm disc
[10] = test system: Fungi mixture (P. expansum, P. italicum, P. digitatum and A. Alternata); assay: disinfection of containers stored inside the rooms by fogging
[11] = organic matter Absence, 0 hours
[12] = organic matter Absence, 2 hours
[13] = organic matter Absence, 3 hours
[14] = organic matter Presence, 0 hours
[15] = organic matter Presence, 1 hour
[16] = organic matter Presence, 2 hours
[17] = organic matter Presence, 3 hours

CCCSS(=O)(=O)CCC [PTSO, Propyl Propyl Thiosulfonate]
diameter of the microbial inhibition halo ([1]; 60 ppm): 27 mm
diameter of the microbial inhibition halo ([1]; 125 ppm): 36 mm
diameter of the microbial inhibition halo ([1]; 250 ppm): 42 mm
diameter of the microbial inhibition halo ([1]; 500 ppm): 50 mm
diameter of the microbial inhibition halo ([1]; 1000 ppm): 68 mm
Reduction in the population of the mixture of fungi expressed in % ([2]; 2000 ppm, Environment): 100%
Reduction in the population of the mixture of fungi expressed in % ([2]; 2000 ppm, Walls): 95%
Reduction in the population of the mixture of fungi expressed in % ([2]; 5000 ppm, Environment): 100%
Reduction in the population of the mixture of fungi expressed in % ([2]; 5000 ppm, Walls): 100%
diameter of the microbial inhibition halo ([3]; 60 ppm): 25 mm
diameter of the microbial inhibition halo ([3]; 125 ppm): 35 mm
diameter of the microbial inhibition halo ([3]; 250 ppm): 45 mm
diameter of the microbial inhibition halo ([3]; 500 ppm): 47 mm
diameter of the microbial inhibition halo ([3]; 1000 ppm): 49 mm
effectiveness of the application (in words) [4]: highly effective
diameter of the microbial inhibition halo ([5]; 60 ppm): 26 mm
diameter of the microbial inhibition halo ([5]; 125 ppm): 33 mm
diameter of the microbial inhibition halo ([5]; 250 ppm): 45 mm
diameter of the microbial inhibition halo ([5]; 500 ppm): 45 mm
diameter of the microbial inhibition halo ([5]; 1000 ppm): 45 mm
Reduction of the population (%) (Rhizopus stolonifer; 2000 ppm, Plastic container): 77%
Reduction of the population (%) (Rhizopus stolonifer; 2000 ppm, Wood container): 78%
Reduction of the population (%) (Rhizopus stolonifer; 5000 ppm, Plastic container): 71%
Reduction of the population (%) (Rhizopus stolonifer; 5000 ppm, Wood container): 56%
Reduction of the population (%) ([6]; 2000 ppm, Plastic container): 93%
Reduction of the population (%) ([6]; 2000 ppm, Wood container): 98%
Reduction of the population (%) ([6]; 5000 ppm, Plastic container): 93%
Reduction of the population (%) ([6]; 5000 ppm, Wood container): 99%
diameter of the microbial inhibition halo ([7]; 60 ppm): 13 mm
diameter of the microbial inhibition halo ([7]; 125 ppm): 20 mm
diameter of the microbial inhibition halo ([7]; 250 ppm): 35 mm
diameter of the microbial inhibition halo ([7]; 500 ppm): 43 mm
diameter of the microbial inhibition halo ([7]; 1000 ppm): 52 mm
Reduction of the population (%) (Penicillium expansum; [11]): 100%
Reduction of the population (%) (Penicillium expansum; organic matter Absence, 1 hour): 100%
Reduction of the population (%) (Penicillium expansum; [12]): 100%
Reduction of the population (%) (Penicillium expansum; [13]): 100%
Reduction of the population (%) (Penicillium expansum; [14]): 100%
Reduction of the population (%) (Penicillium expansum; [15]): 100%
Reduction of the population (%) (Penicillium expansum; [16]): 100%
Reduction of the population (%) (Penicillium expansum; [17]): 85%
Reduction of the population (%) (Penicillium digitatum; [11]): 100%
Reduction of the population (%) (Penicillium digitatum; organic matter Absence, 1 hour): 100%
Reduction of the population (%) (Penicillium digitatum; [12]): 100%
Reduction of the population (%) (Penicillium digitatum; [13]): 100%
Reduction of the population (%) (Penicillium digitatum; [14]): 100%
Reduction of the population (%) (Penicillium digitatum; [15]): 100%
Reduction of the population (%) (Penicillium digitatum; [16]): 100%
Reduction of the population (%) (Penicillium digitatum; [17]): 100%
% Reduction (Fusarium spp.; 250 ppm): 25%
% elimination (Fusarium spp.; 250 ppm): 33%
% Reduction (Fusarium spp.; 500 ppm): 14%
% elimination (Fusarium spp.; 500 ppm): 86%
% Reduction (Fusarium spp.; 1000 ppm): 43%
% elimination (Fusarium spp.; 1000 ppm): 57%
diameter of the microbial inhibition halo ([8]; 60 ppm): 18 mm
diameter of the microbial inhibition halo ([8]; 125 ppm): 19 mm
diameter of the microbial inhibition halo ([8]; 250 ppm): 26 mm
diameter of the microbial inhibition halo ([8]; 500 ppm): 27 mm
diameter of the microbial inhibition halo ([8]; 1000 ppm): 29 mm
Reduction of the fungal population (%) (fungal population; Bottom of the pallet, Beginning of bath): 93%
Reduction of the fungal population (%) (fungal population; Bottom of the pallet, End of bath): 96%
Reduction of the fungal population (%) (fungal population; Side of the pallet, Beginning of bath): 100%
Reduction of the fungal population (%) (fungal population; Side of the pallet, End of bath): 87%
diameter of the microbial inhibition halo ([9]; 60 ppm): 0 mm
diameter of the microbial inhibition halo ([9]; 125 ppm): 12 mm
diameter of the microbial inhibition halo ([9]; 250 ppm): 20 mm
diameter of the microbial inhibition halo ([9]; 500 ppm): 30 mm
diameter of the microbial inhibition halo ([9]; 1000 ppm): 40 mm
Reduction of the population (%) ([10]; 2000 ppm, Plastic container): 94%
Reduction of the population (%) ([10]; 2000 ppm, Wood container): 67%
Reduction of the population (%) ([10]; 5000 ppm, Plastic container): 92%
Reduction of the population (%) ([10]; 5000 ppm, Wood container): 70%
